From patent publication US10537611B2, “Methods of treating lung cancer” (Five Prime Therapeutics, Inc., priority 2011, dated 2020)

Key:
[1] = tested on: MSTO-211H xenograft model; assay: MSTO-211H mesothelioma xenograft tumor growth inhibition; format: in vivo, mouse; settings: Mesothelioma MSTO-211H, IP 15 mg/kg BIW, non-amplified, P < 0.0001
Text: (§1) An exemplary xenograft experiment is as follows. For Caki-1 and MSTO-211H, five million cells were implanted subcutaneously over the right flank of SCID mice (N=10 per group). […] Representative tumor growth curves are shown for a renal cancer, Caki-1, (A), and mesothelioma, MSTO-211H, (B) xenograft cancer model. […] In the MSTO-211H mesothelioma model, FGFR1-ECD.339-Fc administration reduced tumor growth (FIG. 16b) by 64% (P<0.0001).

[2] = tested on: MFE-319 xenograft model; assay: MFE-319 xenograft tumor growth inhibition; format: in vivo, mouse; settings: Endometrial MFE-319; IP 15 mg/kg BIW; non-amplified; P ns
Description: (§2) Percentage tumor growth inhibition by FGFR1-ECD.339-Fc was determined by area-under-the-curve (AUC) analysis of xenograft growth curves treated with FGFR1-ECD.339-Fc compared to albumin control. […] The difference in FGFR1-ECD.339-Fc-mediated xenograft inhibition between FGFR1 gene amplified and non-amplified lung cancer xenograft models was statistically significant (P=0.0333).
(§3) Also shown in Table 5 are the dosing schedule for FGFR1-ECD.339-Fc in a mouse xenograft model, the percent tumor growth inhibition (TGI (%)) and the statistical significance of the tumor growth inhibition (P Value), as well as whether the FGFR1 gene is amplified in the cell line.
as §1

[3] = tested on: NCI-H2126 xenograft model; assay: NCI-H2126 xenograft tumor growth inhibition; format: in vivo, mouse; settings: Lung NCI-H2126; IP 15 mg/kg BIW; non-amplified; P ns
Text: The impact of FGFR1-ECD.339-Fc on tumor growth was compared between FGFR1 gene amplified and non-amplified lung cancer xenograft models. Lung cell lines without FGFR1-amplification examined in this experiment were as follows: A549, NCI-H460, NCI-H226, NCI-H2126, NCI-H441, NCI-H358, NCI-H522 and Colo699. Non-amplified cell lines were purchased from ATTC (Manassas, Va.) and cultured according to supplier instructions. Lung cancer xenograft models using non-FGFR1 gene amplified cell lines were carried out substantially as described in Example 2.
as §2

[4] = tested on: U-118 xenograft model; assay: U-118 xenograft tumor growth inhibition; format: in vivo, mouse; settings: Glioblastoma U-118; IP 15 mg/kg BIW; non-amplified; P ns
Description: as §2, §3, §1

[5] = tested on: panel of 35 xenograft models; assay: Anti-tumor activity in a panel of xenograft models; format: in vivo, mouse; settings: panel of Table 5
Text: as §3, §1

[6] = molecular target: T1, VEGF-A (Homo sapiens, UniProt P15692); assay: SPR interaction with VEGF-A; format: binding; settings: SPR analysis
T1 sequence (P15692 27-191 isoform P15692-4): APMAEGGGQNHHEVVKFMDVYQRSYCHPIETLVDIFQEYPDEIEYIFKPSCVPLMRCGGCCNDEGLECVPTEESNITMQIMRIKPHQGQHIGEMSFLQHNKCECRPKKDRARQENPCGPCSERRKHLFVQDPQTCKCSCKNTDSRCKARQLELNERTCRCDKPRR

[7] = tested on: FGF-2 induced HUVEC proliferation; assay: FGF-2 induced HUVEC proliferation; format: cell-based, human; settings: 10 μg/ml; 10 ng/ml FGF2; 3 days, CellTiter-Glo
Description: To determine whether FGFR1-ECD.339-Fc blocks VEGF-induced proliferation of endothelial cells, HUVEC cells (Life Technologies, Grand Island, N.Y.) were seeded at a density of 4×10^3 cells/well in basal media (Medium 200 (Life Technologies) with 2% heat inactivated FBS) and stimulated with either 10 ng/ml FGF2 (R&D Systems, Minneapolis, Minn.) or 15 ng/ml VEGF-A165 (R&D Systems, Minneapolis, Minn.) either in the presence of absence of 10 μg/ml FGFR1-ECD.339-Fc. HUVEC cell proliferation was determined 3 days post-stimulation using CellTiter-Glo® Luminescent Cell Viability Assay.

[8] = tested on: Calu-1 xenograft model; assay: Calu-1 xenograft tumor growth inhibition; format: in vivo, mouse; settings: Lung Calu-1; IP 15 mg/kg BIW; non-amplified; P ns
Description: as §2, §3, §1

[9] = tested on: lung cancer cell lines with FGFR1 gene amplification; assay: CellTiter-Glo cell number, FGFR1 gene amplified lung cancer cell lines (average); format: cell-based, human; settings: averaged across all FBS concentrations; vs control ECD-Fc; four FGFR1 amplified lines
Description: To determine the impact of FGFR1-ECD.339-Fc on lung cancer cell lines in tissue culture, cells were plated in a Microtest™ 96-well tissue culture plate (Becton Dickenson, Franklin Lakes, N.J.) at a density of 5×10^3 cells/well in medium containing 10%, 1% or 0.1% FBS in the presence or absence of 15 μg/ml FGFR1-ECD.339-Fc (SEQ ID NO: 6) or an unrelated ECD-Fc fusion protein (as a negative control). Plates were incubated at 37° C. at 5% CO2 for 4 days and then assayed to determine the impact of FGFR1-ECD.339-Fc on cell number and proliferation.
To determine cell number the CellTiter-Glo® Luminescent Cell Viability Assay (Promega, Madison, Wis.) was employed. CellTiter-Glo® is a homogeneous method of determining the number of viable cells in culture based on quantitation of the ATP present, an indicator of metabolically active cells. In brief, CellTiter-Glo® Reagent was added to each well of the tissue culture plate at a volume equal to the volume of cell culture medium present in each well (100 μl), the contents mixed for 2 minutes on an orbital shaker to induce cell lysis and then the plate incubated for 10 minutes at room temperature. Luminescence was then determined on an EnVision™ Multilabel Plate Reader (PerkinElmer, Boston, Mass.) with a 0.2 second integration time. Results were expressed as relative light units (RLU)/well. […]

[10] = patients with solid tumors (N=39); up to 16 mg/kg/qwk, any dose-level; cited from earlier work

In the case of “FGFR1-ECD.339-Fc: human FGFR1 extracellular domain ending at amino acid 339 fused to an Fc; SEQ ID NO: 6 (mature form), SEQ ID NO: 5 with signal peptide”, the “TGI (%)” value [1] is reported as 64%, the “TGI (%)” value [2] is reported as 0% and the “TGI (%)” value [3] is reported as 0%. The “TGI (%)” value [4] was 36%, the “Responses observed (models responding / models examined)” value [5] was 19/35 and the “range of inhibition in responding models” value [5] was 25-96%. For the same substance, the “direct interaction with VEGF-A” value [6] was “does not directly interact”, the “FGF-2 induced HUVEC proliferation” value [7] was “capable of blocking” and the “TGI (%)” value [8] was 0%. The “average reduction in cell number (CellTiterGlo RLU)” value [9] was 46.25% and the “impact on serum phosphate” value [10] was “No impact”.
